Read-outs that look alike come from different tables or passages of the source.
Key:
[1] = tested on: ICR female mice; conditions: mouse, in vivo, iv
From the text: The maximum tolerated dose (MTD) of the contrast agent was preliminarily determined by administration to mice by tail intravenous injection.

[2] = tested on: major organs of liver in situ tumor mice; experiment: Tissue fluorescence of liver in situ tumor mice, small animal live imaging analyzer; format: in vivo; conditions: organs removed after magnetic resonance imaging, FIG. 4
From the text: Liver in situ tumor mice tissue fluorescence was observed by a small animal live imaging analyzer (Perkin Elmer). After magnetic resonance imaging, the major organs of the mice were removed and observed by live imaging, and the results are shown in FIG. 4.

[3] = Longitudinal relaxation rate (r1), 0.35T nuclear magnetic resonance imaging system, IR sequence; format: physicochemical; conditions: for r1 in BSA solution(1%): bovine serum protein solution (1%, w/w); for r1 in Water: pure water
Experimental: The longitudinal relaxation rate (r1) of the contrast agent was determined in a 0.35T small nuclear magnetic resonance imaging system using an IR […] sequence. The relaxation rates of the contrast agent in pure water and in bovine serum protein solution (1%, w/w) in different solvents are shown in Table 3 below.

[4] = Stability of the aqueous contrast agent solution at room temperature, relative content by HPLC; format: physicochemical; conditions: aqueous solution 0.1 mg/mL
Experimental: The aqueous solution of the contrast agent (0.1 mg/mL) was left at room temperature and its stability was measured by calibrating its relative content by the HPLC method at different time points, and the stability of the contrast agent is shown in Table 4.

[5] = tested on: H22 liver in situ tumors in Balb/c mice; experiment: Magnetic resonance T1-enhanced imaging of liver in situ tumors, GE 3.0T system; format: in vivo; conditions: Balb/c mice with H22 liver in situ tumor, 1 mg/mL solution, 5 mL/kg tail iv, FIG. 3
Experimental: Magnetic resonance imaging of liver in situ tumors with a contrast agent was performed using a GE 3.0T magnetic resonance imaging system. H22 cells were inoculated in Balb/c mice through liver in-situ injection, and liver conditions were observed through magnetic resonance. After the tumor was formed, 1 mg/mL contrast agent solution (5 mL/kg) was injected through the tail intravenous, and the liver was subjected to magnetic resonance T1-enhanced imaging at different time points after the administration of the agent.

[6] = tested on: murine hepatocellular carcinoma cells H22; experiment: Cell entry rate of the contrast agent by flow cytometry; format: cell-based; conditions: compared among PL-002, PL-003, PL-004 and PL-006, FIG. 2
Experimental: The cell entry rate of the contrast agent at the cell level was determined by flow cytometers. Logarithmically grown murine hepatocellular carcinoma cells H22 were collected and spread evenly in 12-well plates, with an approximate cell number of 1.5×10^5 per well.

[7] = tested on: liver and kidney of ICR mice; experiment: Fluorescence imaging of removed livers and kidneys after magnetic resonance imaging; format: in vivo; conditions: 6 hours after administration, FIG. 1C
Experimental: (§1) • 1. IR-820 (new indocyanine green) and 3,6,9-trioxaundecamethylenediamine (1:1-1:5 eq.) were added to the DMSO solution. And then the triethylamine as the deacid reagent was added to the mixture. The mixture reacted at 20-80° C. for 2 h. The desired product B01 was obtained after precipitation. • 2. B01 and DOTA-NHS ([…] is N-hydroxysuccinimide) (1:1-1:3 eq.) were dissolved in DMSO solution, and 1-20 equivalents of triethylamine was added to the mixture. The mixture reacted at 10-40° C. for 24 h. The desired product B02 was obtained after precipitation. • 3. B02 was reacted with 0.5-2 equivalents of gadolinium chloride hydrate in DMSO at 10-50° C. for 10 h-50 h, and the desired product PL-001 was obtained after precipitation, yield of 83%, purity of 91%. • 4. The final product was dissolved in pure water to create a solution. The product was administered to ICR mice by tail intravenous injection at doses of 5 mg/kg and 30 mg/kg, respectively. Magnetic resonance T1-enhanced imaging (SE sequence) was performed on the liver and kidney of the mice before and after the administration of the product. After the magnetic resonance imaging was completed, the livers and kidneys were removed for fluorescence imaging. […] From the figure, it can be seen that the magnetic resonance enhancement and fluorescence imaging results of the liver and kidney were basically consistent.

[8] = tested on: liver and kidney of ICR mice; experiment: Magnetic resonance T1-enhanced imaging (SE sequence) of liver and kidney after tail intravenous injection; format: in vivo; conditions: tail iv 5 mg/kg and 30 mg/kg, FIG. 1A
Experimental: as §1

[9] = tested on: ICR female mice; conditions: value marked * with footnote not given; 60 is not among the tested doses; cited from earlier work
[10] = normal people, 20 minutes after intravenous injection; cited from earlier work

| Compound | MTD [1] [mg/kg] | distinction of tumor from normal tissue and fluorescence intensity [2] | r1 in BSA solution(1%) [3] [mM⁻¹ s⁻¹] | r1 in Water [3] [mM⁻¹ s⁻¹] | decomposition rate % ([4]; 0 h) [%] | decomposition rate % ([4]; 2 h) | decomposition rate % ([4]; 24 h) | decomposition rate % ([4]; 48 h) | magnetic resonance T1 enhancement of the tumor site [5] | cell entry rate [6] | fluorescence imaging of liver and kidney [7] | magnetic resonance T1-enhanced imaging of liver and kidney [8] | MTD [9] | eliminated from the blood [10] |
| --- | --- | --- | --- | --- | --- | --- | --- | --- | --- | --- | --- | --- | --- | --- |
| CC1(C)C(/C=C/C2=C(Oc3ccc(CCC(=O)NCCCCCCCCCCNC(=O)CN4CCN(CC(=O)[O-])CCN(CC(=O)[O-])CCN(CC(=O)[O-])CC4)cc3)C(=C/C=C3/N(CCCCS(=O)(=O)O)c4ccc5ccccc5c4C3(C)C)/CCC2)=[N+](CCCCS(=O)(=O)O)c2ccc3ccccc3c21.[Gd+3] [PL-003] | 150 | tumor is distinguished from the normal tissue and has better fluorescence intensity | 18.9 | 15.4 | 0 | <LOQ | <LOQ | <LOQ | better enhancement effect | fastest cellular entry | – | – | – | – |
| CC1(C)C(=CC=C2CCCC(C=CC3=[N+](CCCCS(=O)(=O)O)c4ccc5ccccc5c4C3(C)C)=C2NCCCOCCOCCOCCCNC(=O)CN2CCN(CC(=O)[O-])CCN(CC(=O)[O-])CCN(CC(=O)[O-])CC2)N(CCCCS(=O)(=O)O)c2ccc3ccccc3c21.[Gd+3] [PL-001] | 75 | – | – | – | 0 | 5.9% | 40.0% | 65.4% | – | – | significant fluorescence of the liver and kidney | significant enhancement of liver and kidney | – | – |
| CC1(C)C(/C=C/C=C/C=C/C=C2\N(CCCCS(=O)(=O)O)c3ccc4ccccc4c3C2(C)C)=[N+](CCCCS(=O)(=O)[O-])c2ccc3ccccc3c21 [ICG, Indocyanine green] | – | – | – | – | – | – | – | – | – | – | – | – | 60* mg/kg | about 97% |
| CC1(C)C(/C=C/C2=C(Oc3ccc(CCC(=O)NCCOCCOCCOCCNC(=O)CN4CCN(CC(=O)[O-])CCN(CC(=O)[O-])CCN(CC(=O)[O-])CC4)cc3)C(=C/C=C3/N(CCCCS(=O)(=O)O)c4ccc5ccccc5c4C3(C)C)/CCC2)=[N+](CCCCS(=O)(=O)O)c2ccc3ccccc3c21.[Gd+3] [PL-002] | 125 | – | 16.2 | 11.8 | 0 | <LOQ | <LOQ | <LOQ | – | – | – | – | – | – |
| CC1(C)C(/C=C/C2=C(Oc3ccc(CCC(=O)NCCOCCOCCNC(=O)CN4CCN(CC(=O)[O-])CCN(CC(=O)[O-])CCN(CC(=O)[O-])CC4)cc3)C(=C/C=C3/N(CCCCS(=O)(=O)O)c4ccc5ccccc5c4C3(C)C)/CCC2)=[N+](CCCCS(=O)(=O)O)c2ccc3ccccc3c21.[Gd+3] [PL-004] | 125 | – | 17.6 | 14.7 | 0 | <LOQ | <LOQ | <LOQ | – | – | – | – | – | – |

Source: US20240277874A1, “FLUORESCENCE-MAGNETIC RESONANCE DUAL-MODALITY CONTRAST AGENT, PREPARATION METHOD THEREFOR AND USE THEREOF” (HAINAN POLY PHARMACEUTICAL CO., LTD., priority 2021, published 2024)
